This assay deals with T1, Nicotinate-nucleotide adenylyltransferase (Escherichia coli (strain K12), UniProt P0A752).
T1 sequence (P0A752 whole entry): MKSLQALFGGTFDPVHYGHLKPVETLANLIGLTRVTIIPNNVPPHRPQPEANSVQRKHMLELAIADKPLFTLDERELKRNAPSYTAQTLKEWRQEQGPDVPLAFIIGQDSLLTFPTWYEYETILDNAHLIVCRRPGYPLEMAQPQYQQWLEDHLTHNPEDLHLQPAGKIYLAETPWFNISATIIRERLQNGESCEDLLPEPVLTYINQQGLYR
The assay is described as follows: Enzymatic Inhibition Assay. From the text:
The enzymatic assay was masured at fixed NaMN and ATP concentration (equal to two-fold km values)with various concentration of inhibitory compounds.

Values joined by “and” are separate entries in the source; they are usually repeats but may differ in a detail not shown here. Equal values may be shown once.

Take `O=C(CCC(=O)Nc1cccc(Cl)c1)NN=Cc1c2ccccc2cc2ccccc12` [NadD inhibitor 1_02]: the inhibition constant (Ki) (commonly a measure of affinity in units of concentration, obtained from inhibition or displacement) is 8 µM and 5 µM.

Values taken from BindingDB's records for doi:10.1016/j.chembiol.2009.07.006 (Burnham Institute For Medical Research, 2009).
